Tested on: SYO-1 tumor spheroids, viability % test/control
Test: Anticancer human tumor SYO-1 cell line growth inhibition;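 also: spheroids exposed to agents for 7 days before viability read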;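 as to viability, T/C: 100% = DMSO vehicle control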
Details: spheroids with HUVEC and MSC; for IC50: curve of first compound; for viability, T/C: stronger effect = lower value
Source text: Multicellular complex tumor spheroid response to DNA repair inhibitors in combination with DNA-damaging drugs
This study explores the anticancer activities of DNA-damaging drugs and inhibitors of DNA damage repair, both as single agents and in combinations. Complex tumor spheroids comprised of malignant cells, endothelial cells and mesenchymal stem cells served as an in vitro model for human solid tumors. This model system incorporates physiologically relevant features and patient-derived or established malignant cell lines with clinically relevant genetic alterations from many tumor types. Twenty-six patient-derived or established malignant cell lines were evaluated representing sarcoma, melanoma, small cell lung cancer (SCLC), non-small cell lung cancer (NSCLC), as well as bladder, ovarian and pancreatic cancers. The concentration ranges selected for each drug and investigational agent were based upon clinically achievable concentrations if the clinical Cmax of the agent was known.
Compounds. The drugs and compounds olaparib (NSC753686), talazoparib (NSC767125), berzosertib (NSC777718), elimusertib (NSC800525), nedisertib (NSC802822), VX-984 (NSC792969), AZD-1390 (NSC803789), temozolomide (NSC362856), topotecan (NSC609699), trabectedin (NSC813783), staurosporine (NSC755774), and gemcitabine (NSC613327) were obtained from the National Cancer Institute (NCI) Developmental Therapeutics Program Chemical Repository. The FDA-approved anticancer drug set is available from the Developmental Therapeutics Program at https://dtp.cancer.gov/organization/dscb/obtaining/available_plates.htm. […] The stock solutions were prepared in dimethyl sulfoxide (DMSO, Sigma-Aldrich, St. Louis, MO, cat. D2650) at 400-fold the tested concentration and stored at -70 degrees C. Prior to their use, the stock solutions were diluted in fresh medium and the final DMSO concentration in the assay was 0.25% (v/v). All drugs and investigational agents were tested over a range starting from a high concentration at or near the clinical Cmax and decreasing in half-log increments. If the clinical Cmax for an agent had not been determined, the highest concentration tested was 10 microM.
Cell Lines. The patient-derived cancer cell (PDC) lines: 156681-154-R-J1-PDC, 283228-195-R-J1-PDC, 287954-098-R-J1-PDC, 292921-168-R-J2-PDC, 349418-098-R-PDC, 425362-245-T-J1-PDC, 556581-035-R-J1-PDC, and BL0293-F563-PDC were received from the NCI Patient-Derived Models Repository (PDMR, https://pdmr.cancer.gov). The established cell lines HS-SY-2 (RRID:CVCL_8719), MPNST, and SYO-1 (RRID:CVCL_7146) were obtained from the Sloan Kettering Institute. The alveolar soft parts sarcoma cell line ASPS-1 (RRID:CVCL_S738) was established at the NCI and grown from internal seed stocks. The following established cell lines were purchased from the American Type Culture Collection (ATCC, Manassas, VA): G-401 (ATCC, cat. CRL-1441, RRID:CVCL_0270), SW982 (ATCC, cat. HTB-93, RRID:CVCL_1734), VA-ES-BJ (ATCC, cat. CRL-2138, RRID:CVCL_1785), NCI-H719 (ATCC, cat. CRL-5837, RRID:CVCL_1582), NCI-H196 (ATCC, cat. CRL-5823, RRID:CVCL_1509), NCI-H841 (ATCC, cat. CRL-5845, RRID:CVCL_1595), NCI-H1618 (ATCC, cat. CRL-5879, RRID:CVCL_1480), NCI-H1876 (ATCC, cat. CRL-5902, RRID:CVCL_1503), DMS 114 (ATCC, cat. CRL-2066; RRID:CVCL_1174), NCI-H211 (ATCC, cat. CRL-5824; RRID:CVCL_1529), and SW 1271 (ATCC, cat. CRL-2177, RRID:CVCL_1716). The small cell lung cancer cell line COR-L88 was purchased from Sigma-Aldrich (cat. 92031917-1VL, RRID:CVCL_1141). The non-small cell lung cancer cell lines NCI-H226 (RRID:CVCL_1544) and NCI-H322M (RRID:CVCL_1557) were established at the NCI and grown from internal seed stocks. Pooled donor human umbilical vein endothelial cells (HUVEC, Lonza, cat. CC-2519) and human mesenchymal stem cells (hMSC, Lonza, cat. PT-2501) were purchased from Lonza (Walkersville, MD).
Cell Culture. All cells were maintained in an incubator at 37 degrees C and 5% CO2 with 95% humidity. […]

SMILES: Cc1cc(C)c(CNC(=O)c2cc(-c3ccc(CN4CCOCC4)cc3)cc3c2cnn3C2CCCC2)c(=O)[nH]1 + CC[C@@]1(O)C(=O)OCc2c1cc1n(c2=O)Cc2cc3c(CN(C)C)c(O)ccc3nc2-1
- IC50 (second compound 0.003 µM): 8.35 µM
- IC50 (second compound 0.00949 µM): < 0.0316 µM
- IC50 (second compound 0.03 µM): < 0.0316 µM
- IC50 (second compound 0.0949 µM): < 0.0316 µM
- IC50 (second compound 0.3 µM): < 0.0316 µM
- viability, T/C (second compound 0.003 µM, first compound 0.0316 µM): 89.3%
- viability, T/C (second compound 0.003 µM, first compound 0.1 µM): 90.5%
- viability, T/C (second compound 0.003 µM, first compound 0.316 µM): 91.4%
- viability, T/C (second compound 0.003 µM, first compound 1 µM): 91.9%
- viability, T/C (second compound 0.003 µM, first compound 3.16 µM): 80.6%
- viability, T/C (second compound 0.003 µM, first compound 10 µM): 43.9%
- viability, T/C (second compound 0.00949 µM, first compound 0.0316 µM): 10.4%
- viability, T/C (second compound 0.00949 µM, first compound 0.1 µM): 9.41%
- viability, T/C (second compound 0.00949 µM, first compound 0.316 µM): 15.2%
- viability, T/C (second compound 0.00949 µM, first compound 1 µM): 12.5%
- viability, T/C (second compound 0.00949 µM, first compound 3.16 µM): 8.6%
- viability, T/C (second compound 0.00949 µM, first compound 10 µM): 3.78%
- viability, T/C (second compound 0.03 µM, first compound 0.0316 µM): 1.69%
- viability, T/C (second compound 0.03 µM, first compound 0.1 µM): 1.58%
- viability, T/C (second compound 0.03 µM, first compound 0.316 µM): 1.52%
- viability, T/C (second compound 0.03 µM, first compound 1 µM): 1.59%
- viability, T/C (second compound 0.03 µM, first compound 3.16 µM): 1.68%
- viability, T/C (second compound 0.03 µM, first compound 10 µM): 2.01%
- viability, T/C (second compound 0.0949 µM, first compound 0.0316 µM): 1.54%
- viability, T/C (second compound 0.0949 µM, first compound 0.1 µM): 1.74%
- viability, T/C (second compound 0.0949 µM, first compound 0.316 µM): 1.49%
- viability, T/C (second compound 0.0949 µM, first compound 1 µM): 1.89%
- viability, T/C (second compound 0.0949 µM, first compound 3.16 µM): 2.19%
- viability, T/C (second compound 0.0949 µM, first compound 10 µM): 1.93%
- viability, T/C (second compound 0.3 µM, first compound 0.0316 µM): 1.86%
- viability, T/C (second compound 0.3 µM, first compound 0.1 µM): 1.8%
- viability, T/C (second compound 0.3 µM, first compound 0.316 µM): 2.05%
- viability, T/C (second compound 0.3 µM, first compound 1 µM): 2.19%
- viability, T/C (second compound 0.3 µM, first compound 3.16 µM): 2.23%
- viability, T/C (second compound 0.3 µM, first compound 10 µM): 1.83%

SMILES: Cc1sc2c(c1C)C(c1ccc(Cl)cc1)=NC(CC(=O)Nc1ccc(O)cc1)c1nnc(C)n1-2 (stereo not given) + CC[C@@]1(O)C(=O)OCc2c1cc1n(c2=O)Cc2cc3c(CN(C)C)c(O)ccc3nc2-1
- IC50 (second compound 0.003 µM): 0.0434 µM
- IC50 (second compound 0.00949 µM): < 0.00949 µM
- IC50 (second compound 0.03 µM): < 0.00949 µM
- IC50 (second compound 0.0949 µM): < 0.00949 µM
- IC50 (second compound 0.3 µM): < 0.00949 µM
- viability, T/C (second compound 0.003 µM, first compound 0.00949 µM): 84.9%
- viability, T/C (second compound 0.003 µM, first compound 0.03 µM): 70.3%
- viability, T/C (second compound 0.003 µM, first compound 0.0949 µM): 7.08%
- viability, T/C (second compound 0.003 µM, first compound 0.3 µM): 0.99%
- viability, T/C (second compound 0.003 µM, first compound 0.949 µM): 0.77%
- viability, T/C (second compound 0.003 µM, first compound 3 µM): 0.63%
- viability, T/C (second compound 0.00949 µM, first compound 0.00949 µM): 6.31%
- viability, T/C (second compound 0.00949 µM, first compound 0.03 µM): 3.24%
- viability, T/C (second compound 0.00949 µM, first compound 0.0949 µM): 1.18%
- viability, T/C (second compound 0.00949 µM, first compound 0.3 µM): 1.31%
- viability, T/C (second compound 0.00949 µM, first compound 0.949 µM): 0.7%
- viability, T/C (second compound 0.00949 µM, first compound 3 µM): 0.6%
- viability, T/C (second compound 0.03 µM, first compound 0.00949 µM): 1.74%
- viability, T/C (second compound 0.03 µM, first compound 0.03 µM): 1.47%
- viability, T/C (second compound 0.03 µM, first compound 0.0949 µM): 1.35%
- viability, T/C (second compound 0.03 µM, first compound 0.3 µM): 7.03%
- viability, T/C (second compound 0.03 µM, first compound 0.949 µM): 0.62%
- viability, T/C (second compound 0.03 µM, first compound 3 µM): 0.49%
- viability, T/C (second compound 0.0949 µM, first compound 0.00949 µM): 1.62%
- viability, T/C (second compound 0.0949 µM, first compound 0.03 µM): 1.4%
- viability, T/C (second compound 0.0949 µM, first compound 0.0949 µM): 0.87%
- viability, T/C (second compound 0.0949 µM, first compound 0.3 µM): 1.04%
- viability, T/C (second compound 0.0949 µM, first compound 0.949 µM): 0.66%
- viability, T/C (second compound 0.0949 µM, first compound 3 µM): 0.74%
- viability, T/C (second compound 0.3 µM, first compound 0.00949 µM): 1.64%
- viability, T/C (second compound 0.3 µM, first compound 0.03 µM): 1.48%
- viability, T/C (second compound 0.3 µM, first compound 0.0949 µM): 1.05%
- viability, T/C (second compound 0.3 µM, first compound 0.3 µM): 0.75%
- viability, T/C (second compound 0.3 µM, first compound 0.949 µM): 0.47%
- viability, T/C (second compound 0.3 µM, first compound 3 µM): 0.55%
